Patent US6313111A, “Substituted 6H-1,3,4-thiadiazine-2-amines, the use thereof as anaesthetising, cardiovascular and hypometabolic agents, and pharmaceutical composition containing them” (priority 1998, dated 2001)
Values joined by “and” are separate entries in the source; they are usually repeats but may differ in a detail not shown here. Identical values can stand only once. Counter-ions that a name gives are not always drawn.

How the values were obtained:
[1] = rate of oxygen consumption of mice in closed unit with optic-acoustic gas analyser MN 5130; type: in vivo, mice of the BALB line; conditions: relative to starting content
Protocol: In all cases tests were carried out on mice of the BALB line of 3-4 month age. […] In the case of water-soluble compounds, aqueous solutions of the test compounds were injected intraperitoneally (i.p.), while water-insoluble compounds were introduced orally (p.o.).
Rectal temperature changes (absolute magnitues in ° C.) were measured using a medicinal electrothermometer TREM-1 (Table 1). The rate of oxygen consumption was monitored by measuring concentration of oxygen in a closed testing unit with optic-acoustic gas analyser MN 5130. The data on oxygen consumption are given in percents relative to the starting content of oxygen taken as 100%. (Table 2).

[2] = behaviour of mice after injection of compound 1; type: in vivo, mice of the BALB line; conditions: for behaviour of mice: 140 mg/kg
Protocol: In all cases tests were carried out on mice of the BALB line of 3-4 month age. Non-toxic doses of compounds under test varying from 60 to 400 mg/kg were used in all experiments. In the case of water-soluble compounds, aqueous solutions of the test compounds were injected intraperitoneally (i.p.), while water-insoluble compounds were introduced orally (p.o.).
The behaviour of mice to injection of compound 1 at 140 mg/kg dosage is as follows: […]

Compound: c1ccc(C2=NN=C(N3CCOCC3)SC2)cc1 [Compound 1, 2-Morpholino-5-phenyl-6H-1,3,4-thiadiazine, hydrobromide]
- consumption of oxygen (O2) ([1]; 10.0 mg/kg i.p., 0 min): 100 ± 6.9%
- consumption of oxygen (O2) ([1]; 10.0 mg/kg i.p., 10 min): 94.0 ± 5.5%
- consumption of oxygen (O2) ([1]; 10.0 mg/kg i.p., 20 min): 87.3 ± 9.9%
- consumption of oxygen (O2) ([1]; 10.0 mg/kg i.p., 30 min): 78.2%
- consumption of oxygen (O2) ([1]; 10.0 mg/kg i.p., 60 min): 83.3 ± 18.1%
- consumption of oxygen (O2) ([1]; 10.0 mg/kg i.p., 90 min): 75.9 ± 19.3%
- consumption of oxygen (O2) ([1]; 10.0 mg/kg i.p., 120 min): 95.6 ± 10.8%
- consumption of oxygen (O2) ([1]; 10.0 mg/kg i.p., 180 min): 80.6 ± 9.9%
- consumption of oxygen (O2) ([1]; 10.0 mg/kg i.p., 240 min): 92.6 ± 3.9%
- consumption of oxygen (O2) ([1]; 10.0 mg/kg i.p., 300 min): 109.7 ± 8.8%
- consumption of oxygen (O2) ([1]; 35.0 mg/kg i.p., 0 min): 100 ± 7.4%
- consumption of oxygen (O2) ([1]; 35.0 mg/kg i.p., 10 min): 86.3 ± 13.1%
- consumption of oxygen (O2) ([1]; 35.0 mg/kg i.p., 20 min): 73.6 ± 2.6%
- consumption of oxygen (O2) ([1]; 35.0 mg/kg i.p., 30 min): 68.4%
- consumption of oxygen (O2) ([1]; 35.0 mg/kg i.p., 60 min): 70.4 ± 7.1%
- consumption of oxygen (O2) ([1]; 35.0 mg/kg i.p., 90 min): 72.1 ± 10.4%
- consumption of oxygen (O2) ([1]; 35.0 mg/kg i.p., 120 min): 68.4 ± 11.2%
- consumption of oxygen (O2) ([1]; 35.0 mg/kg i.p., 180 min): 78.4 ± 9.3%
- consumption of oxygen (O2) ([1]; 35.0 mg/kg i.p., 240 min): 97.4 ± 5.6%
- consumption of oxygen (O2) ([1]; 35.0 mg/kg i.p., 300 min): 85.1 ± 3.8%
- consumption of oxygen (O2) ([1]; 140.0 mg/kg i.p., 0 min): 100 ± 21.7%
- consumption of oxygen (O2) ([1]; 140.0 mg/kg i.p., 10 min): 26.3 ± 6.8%
- consumption of oxygen (O2) ([1]; 140.0 mg/kg i.p., 20 min): 46.8 ± 4.7%
- consumption of oxygen (O2) ([1]; 140.0 mg/kg i.p., 30 min): 32.2%
- consumption of oxygen (O2) ([1]; 140.0 mg/kg i.p., 60 min): 49.3 ± 9.8%
- consumption of oxygen (O2) ([1]; 140.0 mg/kg i.p., 90 min): 43.6 ± 18.6%
- consumption of oxygen (O2) ([1]; 140.0 mg/kg i.p., 120 min): 49.3 ± 15.4%
- consumption of oxygen (O2) ([1]; 140.0 mg/kg i.p., 180 min): 78.9 ± 10.6%
- consumption of oxygen (O2) ([1]; 140.0 mg/kg i.p., 240 min): 88.8 ± 9.8%
- consumption of oxygen (O2) ([1]; 140.0 mg/kg i.p., 300 min): 105.3 ± 20.5%
- consumption of oxygen (O2) ([1]; 190 mg/kg (1/2 LD16) i.p., 5 min): 43%
- consumption of oxygen (O2) ([1]; 190 mg/kg (1/2 LD16) i.p., 15 min): 71.7%
- consumption of oxygen (O2) ([1]; 190.0 mg/kg i.p., 0 min, hydrobromide): 100% and 100 ± 27.8%
- consumption of oxygen (O2) ([1]; 190.0 mg/kg i.p., 10 min): 26.3 ± 9.8%
- consumption of oxygen (O2) ([1]; 190.0 mg/kg i.p., 20 min): 71.7 ± 4.1%
- consumption of oxygen (O2) ([1]; 190.0 mg/kg i.p., 30 min): 49.2%
- consumption of oxygen (O2) ([1]; 190.0 mg/kg i.p., 60 min, hydrobromide): 29.5% and 29.5 ± 15.0%
- consumption of oxygen (O2) ([1]; 190.0 mg/kg i.p., 90 min, hydrobromide): 47.5% and 47.5 ± 6.8%
- consumption of oxygen (O2) ([1]; 190.0 mg/kg i.p., 120 min, hydrobromide): 36.9% and 36.9 ± 22.8%
- consumption of oxygen (O2) ([1]; 190.0 mg/kg i.p., 180 min, hydrobromide): 55.3% and 55.3 ± 9.1%
- consumption of oxygen (O2) ([1]; 190.0 mg/kg i.p., 240 min, hydrobromide): 99.6% and 99.6 ± 11.2%
- consumption of oxygen (O2) ([1]; 190.0 mg/kg i.p., 300 min, hydrobromide): 151.6% and 151.6 ± 20.7%
- consumption of oxygen (O2) ([1]; 279.0 mg/kg i.p., 0 min): 100 ± 5.2%
- consumption of oxygen (O2) ([1]; 279.0 mg/kg i.p., 10 min): 32.6 ± 2.2%
- consumption of oxygen (O2) ([1]; 279.0 mg/kg i.p., 20 min): 26.7 ± 2.2%
- consumption of oxygen (O2) ([1]; 279.0 mg/kg i.p., 30 min): 20.7%
- consumption of oxygen (O2) ([1]; 279.0 mg/kg i.p., 60 min): 9.3 ± 5.1%
- consumption of oxygen (O2) ([1]; 279.0 mg/kg i.p., 90 min): 10.9 ± 5.5%
- consumption of oxygen (O2) ([1]; 279.0 mg/kg i.p., 120 min): 9.3 ± 5.9%
- consumption of oxygen (O2) ([1]; 279.0 mg/kg i.p., 180 min): 9.3 ± 4.0%
- consumption of oxygen (O2) ([1]; 279.0 mg/kg i.p., 240 min): 13.0 ± 8.7%
- consumption of oxygen (O2) ([1]; 279.0 mg/kg i.p., 300 min): 10.9 ± 1.0%
- consumption of oxygen (O2) ([1]; 365.0 mg/kg i.p., 0 min): 100 ± 4.7%
- consumption of oxygen (O2) ([1]; 365.0 mg/kg i.p., 10 min): 15.2 ± 3.1%
- consumption of oxygen (O2) ([1]; 365.0 mg/kg i.p., 20 min): 15.8 ± 5.0%
- consumption of oxygen (O2) ([1]; 365.0 mg/kg i.p., 30 min): 13.6%
- consumption of oxygen (O2) ([1]; 365.0 mg/kg i.p., 60 min): 13.3 ± 3.7%
- consumption of oxygen (O2) ([1]; 365.0 mg/kg i.p., 90 min): 13.1 ± 2.0%
- consumption of oxygen (O2) ([1]; 365.0 mg/kg i.p., 120 min): 17.0 ± 3.4%
- consumption of oxygen (O2) ([1]; 365.0 mg/kg i.p., 180 min): 11.2 ± 3.4%
- consumption of oxygen (O2) ([1]; 365.0 mg/kg i.p., 240 min): 8.2 ± 2.0%
- consumption of oxygen (O2) ([1]; dose 36.5 mg/kg (1.06 mM/kg) i.p., 300 min): 18.4 ± 2.0%
- behaviour of mice ([2]; 15-180 minutes): akinesia, mio-relaxation, lack of reflexes
- behaviour of mice ([2]; 180-360 minutes): restoration of motor activity
- behaviour of mice ([2]; 5 minutes): decrease in motor activity, suppression of breathing
- tremor or convulsions ([2]; non-toxic dose levels): not accompanied by tremor or convulsions
